Laboratory results from article PMC10187937, “Streptothricin F is a bactericidal antibiotic effective against highly drug-resistant gram-negative bacteria that interacts with the 30S subunit of the 70S ribosome” (PLOS Biology, 2023).
In brackets after ≈: the same amount, converted by molar mass. Read-outs that look alike come from different tables or passages of the source.

Legend:
[1] = tested on: T1, Klebsiella oxytoca FDA-CDC 147; parameters: broth microdilution minimal inhibitory concentration against multidrug-resistant clinical isolates; conditions: KPC; inhibitor
T1 construct: FDA-CDC 147
Description: (§1) Using broth microdilution minimal inhibitory concentration (MIC) testing, we determined the MIC of S-F, S-D, and nourseothricin for a large group of multidrug-resistant CRE. These included strains expressing metallo- and/or serine carbapenemases and the pandrug-resistant, NDM-1–expressing Klebsiella pneumoniae Nevada strain, AR-0663 [18]. For these CRE (n = 39), MIC50 and MIC90 for S-F, S-D, and nourseothricin, respectively, were 2 and 4 (range 1 to 4) μM; 0.25 and 0.5 (range 0.25 to 2) μM; and 0.5 and 1 (range 0.25 to 2) μM. The average MIC was 5.6-fold greater for S-F than for S-D and 4.2-fold greater for S-F than for nourseothricin. […] CRE isolates were from the FDA-CDC Antimicrobial Resistance Isolate Bank (AR-Bank) including the Nevada Strain (AR-0636) and the BIDMC clinical collection sequenced as part of the CRE genomics project. A. baumannii isolates were from the AR-Bank and the Multidrug Resistant Organism Repository and Surveillance Network (MRSN) at the Walter Reed Army Institute of Research (WRAIR). Strains are listed in S3 Table. The single ribosomal operon strain, E. coli SQ110, was from the Coli Genetics Stock Center (Yale University, New Haven, CT) and was originally described by Squire and colleagues.

Escherichia coli BIDMC 6 = tested on: T2, Escherichia coli BIDMC 6; parameters: broth microdilution minimal inhibitory concentration against multidrug-resistant clinical isolates; conditions: KPC-2; inhibitor
T2 construct: BIDMC 6
Description: as §1

[2] = tested on: T3, Klebsiella pneumoniae BIDMC 1; parameters: broth microdilution minimal inhibitory concentration against multidrug-resistant clinical isolates; conditions: KPC-3; inhibitor
T3 construct: BIDMC 1
Description: as §1

[3] = tested on: T4, Klebsiella pneumoniae BIDMC 4; parameters: broth microdilution minimal inhibitory concentration against multidrug-resistant clinical isolates; conditions: KPC-3; inhibitor
T4 construct: BIDMC 4
Description: as §1

Escherichia coli BIDMC 9 = tested on: T5, Escherichia coli BIDMC 9; parameters: broth microdilution minimal inhibitory concentration against multidrug-resistant clinical isolates; conditions: KPC-2; inhibitor
T5 construct: BIDMC 9
Description: as §1

[4] = tested on: T6, Klebsiella pneumoniae FDA-CDC 117; parameters: broth microdilution minimal inhibitory concentration against multidrug-resistant clinical isolates; conditions: KPC-3; inhibitor
T6 construct: FDA-CDC 117
Description: as §1

Escherichia coli BIDMC 3 = tested on: T7, Escherichia coli BIDMC 3; parameters: broth microdilution minimal inhibitory concentration against multidrug-resistant clinical isolates; conditions: KPC-2; inhibitor
T7 construct: BIDMC 3
Description: as §1

[5] = tested on: T8, Klebsiella pneumoniae BIDMC 10; parameters: broth microdilution minimal inhibitory concentration against multidrug-resistant clinical isolates; conditions: KPC-3; inhibitor
T8 construct: BIDMC 10
Description: as §1

[6] = tested on: T9, Escherichia coli BIDMC 17; parameters: broth microdilution minimal inhibitory concentration against multidrug-resistant clinical isolates; conditions: KPC-2; inhibitor
T9 construct: BIDMC 17
Description: as §1

[7] = tested on: T10, Klebsiella pneumoniae BIDMC 5; parameters: broth microdilution minimal inhibitory concentration against multidrug-resistant clinical isolates; conditions: KPC-3; inhibitor
T10 construct: BIDMC 5
Description: as §1

[8] = tested on: T11, Klebsiella pneumoniae BIDMC 7; parameters: broth microdilution minimal inhibitory concentration against multidrug-resistant clinical isolates; conditions: KPC-3; inhibitor
T11 construct: BIDMC 7
Description: as §1

[9] = tested on: T12, Enterobacter cloacae BIDMC 8; parameters: broth microdilution minimal inhibitory concentration against multidrug-resistant clinical isolates; conditions: KPC-3; inhibitor
T12 construct: BIDMC 8
Description: as §1

[10] = tested on: T13, Klebsiella pneumoniae BIDMC 2; parameters: broth microdilution minimal inhibitory concentration against multidrug-resistant clinical isolates; conditions: KPC-3; inhibitor
T13 construct: BIDMC 2
Description: as §1

[11] = tested on: T14, Klebsiella pneumoniae BIDMC 11; parameters: broth microdilution minimal inhibitory concentration against multidrug-resistant clinical isolates; conditions: KPC-4; inhibitor
T14 construct: BIDMC 11
Description: as §1

[12] = tested on: T15, Escherichia coli BIDMC 15; parameters: broth microdilution minimal inhibitory concentration against multidrug-resistant clinical isolates; conditions: KPC-2; inhibitor
T15 construct: BIDMC 15
Description: as §1

[13] = tested on: T16, Enterobacter cloacae FDA-CDC 136; parameters: broth microdilution minimal inhibitory concentration against multidrug-resistant clinical isolates; conditions: KPC; inhibitor
T16 construct: FDA-CDC 136
Description: as §1

[14] = tested on: T17, Acinetobacter baumannii FDA-CDC 311; test: microbe, parasite or virus in culture; parameters: broth microdilution minimal inhibitory concentration against multidrug-resistant clinical isolates
T17 construct: FDA-CDC 311
Description: as §1

[15] = tested on: T18, Klebsiella pneumoniae FDA-CDC 34; test: microbe, parasite or virus in culture; parameters: broth microdilution minimal inhibitory concentration against multidrug-resistant clinical isolates
T18 construct: FDA-CDC 34
Description: as §1

[16] = tested on: T19, Escherichia coli FDA-CDC 149; test: microbe, parasite or virus in culture; parameters: broth microdilution minimal inhibitory concentration against multidrug-resistant clinical isolates; conditions: FDACDC149, NDM
T19 construct: FDA-CDC 149
Description: as §1

[17] = tested on: T20, Klebsiella pneumoniae CDC 636; test: microbe, parasite or virus in culture; parameters: broth microdilution minimal inhibitory concentration against multidrug-resistant clinical isolates; conditions: CDC636, NDM
T20 construct: CDC 636
Description: as §1

[18] = tested on: T21, Enterobacter aerogenes FDA-CDC 161; test: microbe, parasite or virus in culture; parameters: broth microdilution minimal inhibitory concentration against multidrug-resistant clinical isolates; conditions: Klebsiella aerogenes, FDACDC161, IMP-4
T21 construct: FDA-CDC 161
Description: as §1

[19] = tested on: T22, Escherichia coli FDA-CDC 119; test: microbe, parasite or virus in culture; parameters: broth microdilution minimal inhibitory concentration against multidrug-resistant clinical isolates; conditions: FDACDC119, NDM
T22 construct: FDA-CDC 119
Description: as §1

[20] = tested on: T23, Escherichia coli FDA-CDC 118; test: microbe, parasite or virus in culture; parameters: broth microdilution minimal inhibitory concentration against multidrug-resistant clinical isolates; conditions: FDACDC118, NDM
T23 construct: FDA-CDC 118
Description: as §1

[21] = tested on: T24, Escherichia coli FDA-CDC 128; test: microbe, parasite or virus in culture; parameters: broth microdilution minimal inhibitory concentration against multidrug-resistant clinical isolates
T24 construct: FDA-CDC 128
Description: as §1

[22] = tested on: T25, Acinetobacter baumannii FDA-CDC 308; test: microbe, parasite or virus in culture; parameters: broth microdilution minimal inhibitory concentration against multidrug-resistant clinical isolates
T25 construct: FDA-CDC 308
Description: as §1

[23] = tested on: T26, Escherichia coli FDA-CDC 137; test: microbe, parasite or virus in culture; parameters: broth microdilution minimal inhibitory concentration against multidrug-resistant clinical isolates
T26 construct: FDA-CDC 137
Description: as §1

[24] = tested on: T27, Acinetobacter baumannii FDA-CDC 309; test: microbe, parasite or virus in culture; parameters: broth microdilution minimal inhibitory concentration against multidrug-resistant clinical isolates
T27 construct: FDA-CDC 309
Description: as §1

[25] = tested on: T28, Acinetobacter baumannii FDA-CDC 310; test: microbe, parasite or virus in culture; parameters: broth microdilution minimal inhibitory concentration against multidrug-resistant clinical isolates
T28 construct: FDA-CDC 310
Description: as §1

[26] = molecular target: T29, rProtein L28 (50S, near the E-site of the A. baumannii 70S ribosome) (Acinetobacter baumannii, UniProt B7I4T0); test: cryo-EM structure of complex; assay type: binding; conditions: 0.1 uM ribosome, 100 uM ligand (not seen at 10 uM); second site, 50S near E-site; presumably nonspecific per authors
T29 construct: gene rpmB; native 50S ribosomal protein within purified 70S ribosome; site near the E-site, contact at H20
T29 sequence (B7I4T0 whole entry): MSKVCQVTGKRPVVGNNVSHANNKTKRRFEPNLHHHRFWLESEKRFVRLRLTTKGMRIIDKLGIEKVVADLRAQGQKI

NCCC[C@H](N)CC(=O)NCCC[C@H](N)CC(=O)NCCC[C@H](N)CC(=O)N[C@@H]1[C@H](O)[C@@H](OC(N)=O)[C@@H](CO)O[C@H]1NC1=N[C@@H]2C(=O)NC[C@@H](O)[C@H]2N1 [S-D, streptothricin D]
S-D MIC [1]: 0.25 µM | S-D MIC (Escherichia coli BIDMC 6): 0.5 µM | S-D MIC [2]: 0.25 µM | S-D MIC [3]: 0.25 µM | S-D MIC (Escherichia coli BIDMC 9): 0.5 µM | S-D MIC [4]: 0.25 µM | S-D MIC (Escherichia coli BIDMC 3): 0.5 µM | S-D MIC [5]: 0.25 µM | S-D MIC [6]: 0.5 µM | S-D MIC [7]: 0.25 µM | S-D MIC [8]: 0.25 µM | S-D MIC [9]: 0.25 µM | S-D MIC [10]: 0.25 µM | S-D MIC [11]: 0.25 µM | S-D MIC [12]: 0.5 µM | S-D MIC [13]: 0.5 µM | MIC ([14]; FDACDC311, OXA-23, OXA-82, read-out: S-D MIC): 2 µM (≈ 1.52 µg/mL) | MIC ([15]; FDACDC34, IMP-4, read-out: S-D MIC): 0.25 µM (≈ 0.19 µg/mL) | MIC ([16]; read-out: S-D MIC): 0.5 µM (≈ 0.379 µg/mL) | MIC ([17]; read-out: S-D MIC): 0.25 µM (≈ 0.19 µg/mL) | MIC ([18]; read-out: S-D MIC): 0.5 µM (≈ 0.379 µg/mL) | MIC ([19]; read-out: S-D MIC): 0.5 µM (≈ 0.379 µg/mL) | MIC ([20]; read-out: S-D MIC): 1 µM (≈ 0.759 µg/mL) | MIC ([21]; FDACDC128, NDM-1, read-out: S-D MIC): 1 µM (≈ 0.759 µg/mL) | MIC ([22]; FDACDC308, OXA-71, read-out: S-D MIC): 0.25 µM (≈ 0.19 µg/mL) | MIC ([23]; FDACDC137, NDM-6, read-out: S-D MIC): 0.5 µM (≈ 0.379 µg/mL) | MIC ([24]; FDACDC309, OXA-23, OXA-82, read-out: S-D MIC): 2 µM (≈ 1.52 µg/mL) | MIC ([25]; FDACDC310, OXA-23, OXA-82, read-out: S-D MIC): 2 µM (≈ 1.52 µg/mL)

NCCC[C@H](N)CC(=O)N[C@@H]1[C@H](O)[C@@H](OC(N)=O)[C@@H](CO)O[C@H]1N=C1N[C@@H]2[C@H](O)CNC(=O)[C@H]2N1 [S-F, streptothricin F]
S-F MIC [1]: 2 µM | S-F MIC (Escherichia coli BIDMC 6): 2 µM | S-F MIC [2]: 2 µM | S-F MIC [3]: 2 µM | S-F MIC (Escherichia coli BIDMC 9): 4 µM | S-F MIC [4]: 1 µM | S-F MIC (Escherichia coli BIDMC 3): 4 µM | S-F MIC [5]: 2 µM | S-F MIC [6]: 2 µM | S-F MIC [7]: 2 µM | S-F MIC [8]: 2 µM | S-F MIC [9]: 4 µM | S-F MIC [10]: 4 µM | S-F MIC [11]: 2 µM | S-F MIC [12]: 2 µM | S-F MIC [13]: 2 µM | MIC ([14]; FDACDC311, OXA-23, OXA-82, read-out: S-F MIC): 8 µM (≈ 4.02 µg/mL) | MIC ([15]; FDACDC34, IMP-4, read-out: S-F MIC): 2 µM (≈ 1.01 µg/mL) | MIC ([16]; read-out: S-F MIC): 4 µM (≈ 2.01 µg/mL) | MIC ([17]; read-out: S-F MIC): 1 µM (≈ 0.503 µg/mL) | MIC ([18]; read-out: S-F MIC): 2 µM (≈ 1.01 µg/mL) | MIC ([19]; read-out: S-F MIC): 4 µM (≈ 2.01 µg/mL) | MIC ([20]; read-out: S-F MIC): 4 µM (≈ 2.01 µg/mL) | MIC ([21]; FDACDC128, NDM-1, read-out: S-F MIC): 4 µM (≈ 2.01 µg/mL) | MIC ([22]; FDACDC308, OXA-71, read-out: S-F MIC): 1 µM (≈ 0.503 µg/mL) | MIC ([23]; FDACDC137, NDM-6, read-out: S-F MIC): 2 µM (≈ 1.01 µg/mL) | MIC ([24]; FDACDC309, OXA-23, OXA-82, read-out: S-F MIC): 8 µM (≈ 4.02 µg/mL) | MIC ([25]; FDACDC310, OXA-23, OXA-82, read-out: S-F MIC): 8 µM (≈ 4.02 µg/mL) | cryo-EM structure of 70S complex [26]: S-F and S-D overlap at this site, interacting with H20 of rProtein L28
